Experimental data from patent publication US20180110218A1, “Substrate for Controlling Flies and Other Insects, Method for Manufacturing Thereof and Use of Said Substrate as Animal Litter” (priority 2016, published 2018).
“Also recorded” adds a separate entry of the source.

How the values were obtained:
Type in all cases: in vivo
[1] = tested on: Musca domestica larvae and pupae; test: Test 5: mortality of M. domestica, wood shavings impregnated with cyromazine formulations on horse manure
Description: The absorbent substrate impregnated were wood shavings of the “Great Northern” pine tree, which are the most commonly used for horse litters.
For the effectiveness studies, the formulations for impregnating the wood shavings were applied manually by means of a container with a spray gun. Several sprayings were carried out, turning the wood shavings halfway to ensure that they were homogeneously impregnated.
The organic matter used was rabbit excrement in the first two tests with pyriproxyfen, due to its increased availability and high infestation with fly larvae. For tests 3 and 4 with pyriproxyfen and the test carried out with cyromazine, horse excrement was used since it is the main object on which the product is applied. In both cases, manure with high levels of fly larvae infestation was selected in order to obtain a suitable number of larvae per test. […]
In the case of the test with cyromazine, after the 5 days of exposure the dead pupae and larvae were separated. Once the adults emerged, the dead larvae, the unviable pupae and the adults that emerged (healthy and malformed) were counted in order to calculate the mortality rate for each case. […]

[2] = tested on: Musca domestica larvae and pupae; test: Test 1: pupal mortality of M. domestica, wood shavings impregnated with pyriproxyfen/diflubenzuron formulations on rabbit manure
Description: (§1) The organic matter used was rabbit excrement in the first two tests with pyriproxyfen, due to its increased availability and high infestation with fly larvae. […] In both cases, manure with high levels of fly larvae infestation was selected in order to obtain a suitable number of larvae per test. […]
(§2) In the case of the tests of litters with pyriproxyfen, after 5 days of exposure (enough time for the larvae to progress to the pupal stage), the pupae were separated in plastic cups covered with a net, waiting for the adults to emerge. Once the adults emerged, the unviable pupae and the adults that emerged (healthy and malformed) were counted in order to calculate the mortality rate for each case. […]

[3] = tested on: Musca domestica larvae and pupae; test: Test 4: pupal mortality of M. domestica, wood shavings impregnated with low-concentration pyriproxyfen formulations on horse manure
Description: as §1, §2

Nc1nc(N)nc(NC2CC2)n1 [cyromazine]
effectiveness (in words) [1]: effective in low doses

O=C(NC(=O)c1c(F)cccc1F)Nc1ccc(Cl)cc1 [diflubenzuron]
mortality results / effectiveness (in words) [2]: effective in low doses

CC(COc1ccc(Oc2ccccc2)cc1)Oc1ccccn1 (stereo not drawn) [pyriproxyfen]
effectiveness as a pupicide (in words) [3]: good effectiveness; also recorded: effective in low doses
